Laboratory results as given in ChEMBL document CHEMBL3046502, “In vitro antimicrobial and antitubercular studies of novel 6-substituted (pyrrolidin-1-yl)-2(1H)-pyridinones” (2012).
Values after ≈ are worked out from the molar mass of the structure shown.

Columns and labels:
Assay type in all cases: functional
Candida albicans = assay: Antimicrobial activity against Candida albicans MTCC 227
Aspergillus niger = assay: Antimicrobial activity against Aspergillus niger MTCC 282
Staphylococcus aureus = assay: Antimicrobial activity against Staphylococcus aureus MTCC 96 by broth microdilution method
Escherichia coli = assay: Antimicrobial activity against Escherichia coli MTCC 442 by broth microdilution method
Aspergillus clavatus = assay: Antimicrobial activity against Aspergillus clavatus MTCC 1323
Pseudomonas aeruginosa = assay: Antimicrobial activity against Pseudomonas aeruginosa MTCC 2488 by broth microdilution method
Streptococcus pyogenes = assay: Antimicrobial activity against Streptococcus pyogenes MTCC 443 by broth microdilution method
[1] = test system: Mycobacterium tuberculosis; assay: Antimicrobial activity against Mycobacterium tuberculosis H37Rv; conditions: for MIC: Mycobacterium tuberculosis, H37Rv

COc1ccc(-c2cc(N3CCCC3)n(-c3cccc(Cl)c3)c(=O)c2CN2CCCC2)cc1
MIC (Candida albicans): 500 µg/mL (≈ 1080 µM)
MIC (Aspergillus niger): 500 µg/mL (≈ 1080 µM)
MIC (Staphylococcus aureus): 500 µg/mL (≈ 1080 µM)
MIC (Escherichia coli): 250 µg/mL (≈ 539 µM)
MIC (Aspergillus clavatus): 1000 µg/mL (≈ 2160 µM)
MIC (Pseudomonas aeruginosa): 500 µg/mL (≈ 1080 µM)
MIC (Streptococcus pyogenes): 500 µg/mL (≈ 1080 µM)

COc1ccc(-c2cc(N3CCCC3)n(-c3cccc(Cl)c3)c(=O)c2Cn2cncn2)cc1
inhibition (INH) [1]: 98%
MIC [1]: 500 µg/mL (≈ 1080 µM)
MIC (Candida albicans): 200 µg/mL (≈ 433 µM)
MIC (Aspergillus niger): 250 µg/mL (≈ 541 µM)
MIC (Staphylococcus aureus): 250 µg/mL (≈ 541 µM)
MIC (Escherichia coli): 100 µg/mL (≈ 216 µM)
MIC (Aspergillus clavatus): 500 µg/mL (≈ 1080 µM)
MIC (Pseudomonas aeruginosa): 100 µg/mL (≈ 216 µM)
MIC (Streptococcus pyogenes): 200 µg/mL (≈ 433 µM)

COc1ccc(-c2cc(=O)n(-c3cccc(Cl)c3)c(N3CCCC3)c2/N=N/c2c(Cl)cc([N+](=O)[O-])c(Cl)c2Cl)cc1
MIC (Candida albicans): 250 µg/mL (≈ 395 µM)
MIC (Aspergillus niger): 1000 µg/mL (≈ 1580 µM)
MIC (Staphylococcus aureus): 200 µg/mL (≈ 316 µM)
MIC (Escherichia coli): 250 µg/mL (≈ 395 µM)
MIC (Aspergillus clavatus): 1000 µg/mL (≈ 1580 µM)
MIC (Pseudomonas aeruginosa): 250 µg/mL (≈ 395 µM)
MIC (Streptococcus pyogenes): 200 µg/mL (≈ 316 µM)

COc1ccc(-c2cc(=O)n(-c3cccc(Cl)c3)c(N3CCCC3)c2/N=N/c2ccc(Cl)cc2[N+](=O)[O-])cc1
inhibition (INH) [1]: 98%
MIC [1]: 500 µg/mL (≈ 886 µM)
MIC (Candida albicans): 250 µg/mL (≈ 443 µM)
MIC (Aspergillus niger): 200 µg/mL (≈ 354 µM)
MIC (Staphylococcus aureus): 250 µg/mL (≈ 443 µM)
MIC (Escherichia coli): 250 µg/mL (≈ 443 µM)
MIC (Aspergillus clavatus): 200 µg/mL (≈ 354 µM)
MIC (Pseudomonas aeruginosa): 500 µg/mL (≈ 886 µM)
MIC (Streptococcus pyogenes): 250 µg/mL (≈ 443 µM)

COc1ccc(-c2cc(=O)n(-c3cccc(Cl)c3)c(N3CCCC3)c2/N=N/c2ccc([N+](=O)[O-])cc2Cl)cc1
MIC (Candida albicans): 500 µg/mL (≈ 886 µM)
MIC (Aspergillus niger): 500 µg/mL (≈ 886 µM)
MIC (Staphylococcus aureus): 200 µg/mL (≈ 354 µM)
MIC (Escherichia coli): 250 µg/mL (≈ 443 µM)
MIC (Aspergillus clavatus): 500 µg/mL (≈ 886 µM)
MIC (Pseudomonas aeruginosa): 250 µg/mL (≈ 443 µM)
MIC (Streptococcus pyogenes): 200 µg/mL (≈ 354 µM)

COc1ccc(-c2cc(=O)n(-c3cccc(Cl)c3)c(N3CCCC3)c2/N=N/c2ccc(Cl)c(Cl)c2)cc1
MIC (Candida albicans): 100 µg/mL (≈ 181 µM)
MIC (Aspergillus niger): 500 µg/mL (≈ 903 µM)
MIC (Staphylococcus aureus): 200 µg/mL (≈ 361 µM)
MIC (Escherichia coli): 62.5 µg/mL (≈ 113 µM)
MIC (Aspergillus clavatus): 1000 µg/mL (≈ 1810 µM)
MIC (Pseudomonas aeruginosa): 200 µg/mL (≈ 361 µM)
MIC (Streptococcus pyogenes): 500 µg/mL (≈ 903 µM)

COc1ccc(-c2cc(=O)n(-c3cccc(Cl)c3)c(N3CCCC3)c2/N=N/c2cc(Cl)ccc2Cl)cc1
inhibition (INH) [1]: 99%
MIC [1]: 100 µg/mL (≈ 181 µM)
MIC (Candida albicans): 1000 µg/mL (≈ 1810 µM)
MIC (Aspergillus niger): > 1000 µg/mL
MIC (Staphylococcus aureus): 500 µg/mL (≈ 903 µM)
MIC (Escherichia coli): 100 µg/mL (≈ 181 µM)
MIC (Aspergillus clavatus): > 1000 µg/mL
MIC (Pseudomonas aeruginosa): 500 µg/mL (≈ 903 µM)
MIC (Streptococcus pyogenes): 500 µg/mL (≈ 903 µM)

COc1ccc(-c2cc(=O)n(-c3cccc(Cl)c3)c(N3CCCC3)c2/N=N/c2ccc([N+](=O)[O-])cc2)cc1
MIC (Candida albicans): 500 µg/mL (≈ 943 µM)
MIC (Aspergillus niger): > 1000 µg/mL
MIC (Staphylococcus aureus): 500 µg/mL (≈ 943 µM)
MIC (Escherichia coli): 250 µg/mL (≈ 472 µM)
MIC (Aspergillus clavatus): 500 µg/mL (≈ 943 µM)
MIC (Pseudomonas aeruginosa): 250 µg/mL (≈ 472 µM)
MIC (Streptococcus pyogenes): 250 µg/mL (≈ 472 µM)

COc1ccc(-c2cc(=O)n(-c3cccc(Cl)c3)c(N3CCCC3)c2/N=N/c2cccc([N+](=O)[O-])c2)cc1
MIC (Candida albicans): 500 µg/mL (≈ 943 µM)
MIC (Aspergillus niger): 500 µg/mL (≈ 943 µM)
MIC (Staphylococcus aureus): 250 µg/mL (≈ 472 µM)
MIC (Escherichia coli): 250 µg/mL (≈ 472 µM)
MIC (Aspergillus clavatus): 500 µg/mL (≈ 943 µM)
MIC (Pseudomonas aeruginosa): 200 µg/mL (≈ 377 µM)
MIC (Streptococcus pyogenes): 250 µg/mL (≈ 472 µM)

COc1ccc(-c2cc(=O)n(-c3cccc(Cl)c3)c(N3CCCC3)c2/N=N/c2ccccc2[N+](=O)[O-])cc1
MIC (Candida albicans): 250 µg/mL (≈ 472 µM)
MIC (Aspergillus niger): 500 µg/mL (≈ 943 µM)
MIC (Staphylococcus aureus): 100 µg/mL (≈ 189 µM)
MIC (Escherichia coli): 200 µg/mL (≈ 377 µM)
MIC (Aspergillus clavatus): 250 µg/mL (≈ 472 µM)
MIC (Pseudomonas aeruginosa): 200 µg/mL (≈ 377 µM)
MIC (Streptococcus pyogenes): 100 µg/mL (≈ 189 µM)

COc1ccc(-c2cc(=O)n(-c3cccc(Cl)c3)c(N3CCCC3)c2/N=N/c2ccc(C)cc2)cc1
MIC (Candida albicans): 250 µg/mL (≈ 501 µM)
MIC (Aspergillus niger): 250 µg/mL (≈ 501 µM)
MIC (Staphylococcus aureus): 200 µg/mL (≈ 401 µM)
MIC (Escherichia coli): 200 µg/mL (≈ 401 µM)
MIC (Aspergillus clavatus): 500 µg/mL (≈ 1000 µM)
MIC (Pseudomonas aeruginosa): 250 µg/mL (≈ 501 µM)
MIC (Streptococcus pyogenes): 200 µg/mL (≈ 401 µM)

COc1ccc(-c2cc(=O)n(-c3cccc(Cl)c3)c(N3CCCC3)c2/N=N/c2cccc(C)c2)cc1
MIC (Candida albicans): 500 µg/mL (≈ 1000 µM)
MIC (Aspergillus niger): 500 µg/mL (≈ 1000 µM)
MIC (Staphylococcus aureus): 250 µg/mL (≈ 501 µM)
MIC (Escherichia coli): 250 µg/mL (≈ 501 µM)
MIC (Aspergillus clavatus): 500 µg/mL (≈ 1000 µM)
MIC (Pseudomonas aeruginosa): 250 µg/mL (≈ 501 µM)
MIC (Streptococcus pyogenes): 200 µg/mL (≈ 401 µM)

COc1ccc(-c2cc(=O)n(-c3cccc(Cl)c3)c(N3CCCC3)c2/N=N/c2ccccc2C)cc1
MIC (Candida albicans): 250 µg/mL (≈ 501 µM)
MIC (Aspergillus niger): 1000 µg/mL (≈ 2000 µM)
MIC (Staphylococcus aureus): 500 µg/mL (≈ 1000 µM)
MIC (Escherichia coli): 200 µg/mL (≈ 401 µM)
MIC (Aspergillus clavatus): 1000 µg/mL (≈ 2000 µM)
MIC (Pseudomonas aeruginosa): 500 µg/mL (≈ 1000 µM)
MIC (Streptococcus pyogenes): 500 µg/mL (≈ 1000 µM)

COc1ccc(-c2cc(=O)n(-c3cccc(Cl)c3)c(N3CCCC3)c2/N=N/c2ccc(Cl)cc2)cc1
MIC (Candida albicans): 100 µg/mL (≈ 193 µM)
MIC (Aspergillus niger): 500 µg/mL (≈ 963 µM)
MIC (Staphylococcus aureus): 500 µg/mL (≈ 963 µM)
MIC (Escherichia coli): 100 µg/mL (≈ 193 µM)
MIC (Aspergillus clavatus): 500 µg/mL (≈ 963 µM)
MIC (Pseudomonas aeruginosa): 500 µg/mL (≈ 963 µM)
MIC (Streptococcus pyogenes): 500 µg/mL (≈ 963 µM)

COc1ccc(-c2cc(=O)n(-c3cccc(Cl)c3)c(N3CCCC3)c2/N=N/c2cccc(Cl)c2)cc1
MIC (Candida albicans): 250 µg/mL (≈ 481 µM)
MIC (Aspergillus niger): 500 µg/mL (≈ 963 µM)
MIC (Staphylococcus aureus): 100 µg/mL (≈ 193 µM)
MIC (Escherichia coli): 500 µg/mL (≈ 963 µM)
MIC (Aspergillus clavatus): 500 µg/mL (≈ 963 µM)
MIC (Pseudomonas aeruginosa): 500 µg/mL (≈ 963 µM)
MIC (Streptococcus pyogenes): 100 µg/mL (≈ 193 µM)

COc1ccc(-c2cc(=O)n(-c3cccc(Cl)c3)c(N3CCCC3)c2/N=N/c2ccccc2Cl)cc1
MIC (Candida albicans): 250 µg/mL (≈ 481 µM)
MIC (Aspergillus niger): 500 µg/mL (≈ 963 µM)
MIC (Staphylococcus aureus): 250 µg/mL (≈ 481 µM)
MIC (Escherichia coli): 250 µg/mL (≈ 481 µM)
MIC (Aspergillus clavatus): 250 µg/mL (≈ 481 µM)
MIC (Pseudomonas aeruginosa): 100 µg/mL (≈ 193 µM)
MIC (Streptococcus pyogenes): 250 µg/mL (≈ 481 µM)

COc1ccc(-c2cc(=O)n(-c3cccc(Cl)c3)c(N3CCCC3)c2/N=N/c2ccccc2)cc1
MIC (Candida albicans): 500 µg/mL (≈ 1030 µM)
MIC (Aspergillus niger): 250 µg/mL (≈ 515 µM)
MIC (Staphylococcus aureus): 250 µg/mL (≈ 515 µM)
MIC (Escherichia coli): 250 µg/mL (≈ 515 µM)
MIC (Aspergillus clavatus): 500 µg/mL (≈ 1030 µM)
MIC (Pseudomonas aeruginosa): 500 µg/mL (≈ 1030 µM)
MIC (Streptococcus pyogenes): 250 µg/mL (≈ 515 µM)

COc1ccc(-c2cc(N3CCCC3)n(-c3cccc(Cl)c3)c(=O)c2/N=N/c2c(Cl)cc([N+](=O)[O-])cc2Cl)cc1
MIC (Candida albicans): 250 µg/mL (≈ 417 µM)
MIC (Aspergillus niger): 1000 µg/mL (≈ 1670 µM)
MIC (Staphylococcus aureus): 200 µg/mL (≈ 334 µM)
MIC (Escherichia coli): 250 µg/mL (≈ 417 µM)
MIC (Aspergillus clavatus): 1000 µg/mL (≈ 1670 µM)
MIC (Pseudomonas aeruginosa): 250 µg/mL (≈ 417 µM)
MIC (Streptococcus pyogenes): 200 µg/mL (≈ 334 µM)
